{
  "source": "patent US6489490B1",
  "about": "“2-(2-chlorophenyl)-3,4-dihydro-2h-pyrrol derivatives” (Bayer Aktiengesellschaft, priority 1998, dated 2002)",
  "key": {"[1]": {"experiment": "log P determined by HPLC analysis", "format": "physicochemical", "experimental": "log P*=[…] logarithm to base 10 of the […] partition coefficient, determined by HPLC analysis on 125×4.0 mm Kromasil 120 C 18 (5 μm), using water/acetonitrile as mobile phase; flow rate: 1.5 ml/min."}, "[2]": {"tested_on": "caterpillars of the cotton bollworm (Heliothis armigera)", "experiment": "Heliothis armigera test", "format": "in vivo", "settings": "concentration of active compound 0.004%, after 6 days, dipped soybean shoots", "experimental": "(§1) Solvent: 7 parts by weight of dimethylformamide\n(§2) Emulsifier: 1 part by weight of alkylaryl polyglycol ether\n(§3) To produce a suitable preparation of active compound, 1 part by weight of active compound is mixed with the stated amounts of solvent and emulsifier, and the concentrate is diluted with emusifier-containing water to the desired concentration.\nSoybean shoots (Glycine max) are treated by being dipped into the preparation of active compound of the desired concentration and are populated with caterpillars of the cotton bollworm (Heliothis armigera) while the leaves are still moist.\n(§4) After the desired period of time, the kill in % is determined. 100% means that all caterpillars have been killed; 0% means that none of the caterpillars have been killed."}, "[3]": {"tested_on": "larvae of the mustard beetle (Phaedon cochleariae)", "experiment": "Phaedon larvae test", "format": "in vivo", "settings": "concentration of active compound 0.004%, after 6 days, dipped cabbage leaves", "experimental": "Phaedon Larvae Test Solvent: 7 parts by weight of dimethylformamide Emulsifier: 1 part by weight of alkylaryl polyglycol ether To produce a suitable preparation of active compound, 1 part by weight of active compound is mixed with the stated amounts of solvent and emulsifier, and the concentrate is diluted with emusifier-containing water to the desired concentration. Cabbage leaves (Brassica oleracea) are treated by being dipped into the preparation of active compound of the desired concentration and are populated with larvae of the mustard beetle (Phaedon cochleariae) while the leaves are still moist."}, "[4]": {"tested_on": "caterpillars of the diamond-back moth (Plutella xylostella)", "experiment": "Plutella test", "format": "in vivo", "settings": "concentration of active compound 0.004%, after 6 days, dipped cabbage leaves", "experimental": "as §1, §2, §3\nCabbage leaves (Brassica oleracea) are treated by being dipped into the preparation of active compound of the desired concentration and are populated with caterpillars of the diamond-back moth (Plutella xylostella) while the leaves are still moist.\nas §4"}, "[5]": {"tested_on": "caterpillars of the army-worm (Spodoptera frugiperda)", "experiment": "Spodoptera frugiperda test", "format": "in vivo", "settings": "concentration of active compound at most 0.1%, after 6 days, dipped cabbage leaves", "experimental": "Spodoptera frugiperda Test\nas §1, §2, §3\nCabbage leaves (Brassica oleracea) are treated by being dipped into the preparation of active compound of the desired concentration and are populated with caterpillars of the army-worm (Spodoptera frugiperda) while the leaves are still moist.\nas §4"}, "[6]": {"tested_on": "all stages of the greenhouse red spider mite (Tetranychus urticae)", "experiment": "Tetranychus test (OP-resistant/dip treatment)", "format": "in vivo", "settings": "concentration of active compound at most 0.1%, after 6 days, dipped bean plants", "experimental": "Tetranychus Test (OP-resistant/dip Treatment)\nas §1, §2\nTo produce a suitable preparation of active compound, 1 part by weight of active compound is mixed with the stated amounts of solvent and emulsifier, and the concentrate is diluted with emulsifier-containing water to the desired concentration.\nBean plants (Phaseolus vulgaris) which are heavily infested by all stages of the greenhouse red spider mite (Tetranychus urticae) are dipped into a preparation of the active compound of the desired concentration.\nAfter the desired period of time, the kill in % is determined. 100% means that all spider mites have been killed; 0% means that none of the spider mites have been killed."}, "[7]": {"settings": "pH 2.3, HPLC, read-out: log P (pH 2.3)"}},
  "note": "Where two headings read alike, the source gives them in different places.",
  "data": [
    {"smiles": "O=C(c1ccccc1Cl)C1CC(c2ccccc2)N(C(=O)c2ccccc2Cl)C1=O", "note": "(stereo not drawn) [Example G(II)-20, 1,3-(2-chlorobenzoyl)-5-phenyl-pyrrolidin-2-one]", "values": [
      {"measurement": "chromatographic logP", "setting": "[1]; pH 2.5, read-out: log P (pH 2.5)", "value": 3.91}
    ]},
    {"smiles": "FC(F)(F)Oc1ccc(-c2ccc(C3CCC(c4ccccc4Cl)=N3)cc2)cc1", "note": "(stereo not drawn) [Example I-7]", "values": [
      {"measurement": "kill in %", "setting": "[2]", "value": 100, "unit": "%"},
      {"measurement": "kill in %", "setting": "[3]", "value": 100, "unit": "%"},
      {"measurement": "kill in %", "setting": "[4]", "value": 100, "unit": "%"},
      {"measurement": "kill in %", "setting": "[5]", "value": 100, "unit": "%"},
      {"measurement": "kill in %", "setting": "[6]", "value": 100, "unit": "%"}
    ]},
    {"smiles": "Clc1ccccc1C1=NC(c2ccccc2)CC1", "note": "(stereo not drawn) [Example I-20]", "values": [
      {"measurement": "kill in %", "setting": "[6]", "value": 100, "unit": "%"},
      {"measurement": "log P* (pH 7.5)", "setting": "[1]; pH 7.5, HPLC, Kromasil 120 C 18, water/acetonitrile", "value": 3.6, "unit": "l"}
    ]},
    {"smiles": "FC(F)C(F)(F)Oc1ccc(-c2ccc(C3CCC(c4ccccc4Cl)=N3)cc2)cc1", "note": "(stereo not drawn) [Example I-43]", "values": [
      {"measurement": "chromatographic logP", "setting": "[1]; [7]", "value": 4.01}
    ]},
    {"smiles": "CC(C)(C)OC(=O)N1C(=O)CCC1c1ccc(-c2ccc(OC(F)(F)C(F)F)cc2)cc1", "note": "(stereo not drawn) [Example IX-43]", "values": [
      {"measurement": "chromatographic logP", "setting": "[1]; [7]", "value": 3.96}
    ]},
    {"smiles": "CC(C)(C)OC(=O)NC(CCC(=O)c1ccccc1Cl)c1ccc(-c2ccc(OC(F)(F)C(F)F)cc2)cc1", "note": "(stereo not drawn) [Example VIII-43]", "values": [
      {"measurement": "chromatographic logP", "setting": "[1]; [7]", "value": 4.94}
    ]},
    {"smiles": "O=C1CCC(c2ccc(-c3ccc(OC(F)(F)C(F)F)cc3)cc2)N1", "note": "(stereo not drawn) [Example XI-43]", "values": [
      {"measurement": "chromatographic logP", "setting": "[1]; [7]", "value": 2.79}
    ]}
  ]
}
